Experiment [1] concerns the target T1, Cbl-b (Homo sapiens, UniProt Q13191).
T1 construct: Cbl-b-HiBit KI Jurkat Cells were purchased from Promega; host or cells: Cbl-b-HiBiT knock-in Jurkat cells
Put plainly: Cbl-b Degradation Method A (FACS, anti-Cbl-b antibody staining). It is filed as cell-based. The conditions noted are these: Cbl-b-HiBit KI Jurkat Cells, incubated at least 20 hours; for DC50: half maximal degradation, read-out: Cbl-b Degredation Method A IC50; for Dmax: Jurkat, maximum degradation observed, read-out: Cbl-b Degredation Method A Dmax (%). Summed up:
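Cbl-b-HiBit KI Jurkat cells treated with compound for at least 20 h at 37 °C, then fixed, permeabilized and stained with anti-Cbl-b antibody plus anti-rabbit AF488 secondary. Cbl-b levels read by FACS; DC50 and Dmax (percent of control) derived.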

The target of experiment [2] is T1, Cbl-b. Kind of experiment: Cbl-b Degradation Method B (Nano-Glo HiBiT lytic detection). It is filed as cell-based. The settings on record: Cbl-b-HiBit KI Jurkat Cells, incubated at least 6-24 hours; for DC50: half maximal degradation, read-out: Cbl-b Degredation Method B IC50; for Dmax: read-out: Cbl-b Degredation Method B Dmax (%). In a few lines:
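Cbl-b-HiBiT knock-in Jurkat cells (20,000/well) were treated after ~24 h plating with an 11-point 1:3 series for 6-24 h at 37° C. Remaining Cbl-b measured by Nano-Glo HiBiT lytic luminescence. DC50 and Dmax expressed as % of control.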

A value given as a limit tells only on which side of the number the result lay.

T1 sequence (Q13191 whole entry): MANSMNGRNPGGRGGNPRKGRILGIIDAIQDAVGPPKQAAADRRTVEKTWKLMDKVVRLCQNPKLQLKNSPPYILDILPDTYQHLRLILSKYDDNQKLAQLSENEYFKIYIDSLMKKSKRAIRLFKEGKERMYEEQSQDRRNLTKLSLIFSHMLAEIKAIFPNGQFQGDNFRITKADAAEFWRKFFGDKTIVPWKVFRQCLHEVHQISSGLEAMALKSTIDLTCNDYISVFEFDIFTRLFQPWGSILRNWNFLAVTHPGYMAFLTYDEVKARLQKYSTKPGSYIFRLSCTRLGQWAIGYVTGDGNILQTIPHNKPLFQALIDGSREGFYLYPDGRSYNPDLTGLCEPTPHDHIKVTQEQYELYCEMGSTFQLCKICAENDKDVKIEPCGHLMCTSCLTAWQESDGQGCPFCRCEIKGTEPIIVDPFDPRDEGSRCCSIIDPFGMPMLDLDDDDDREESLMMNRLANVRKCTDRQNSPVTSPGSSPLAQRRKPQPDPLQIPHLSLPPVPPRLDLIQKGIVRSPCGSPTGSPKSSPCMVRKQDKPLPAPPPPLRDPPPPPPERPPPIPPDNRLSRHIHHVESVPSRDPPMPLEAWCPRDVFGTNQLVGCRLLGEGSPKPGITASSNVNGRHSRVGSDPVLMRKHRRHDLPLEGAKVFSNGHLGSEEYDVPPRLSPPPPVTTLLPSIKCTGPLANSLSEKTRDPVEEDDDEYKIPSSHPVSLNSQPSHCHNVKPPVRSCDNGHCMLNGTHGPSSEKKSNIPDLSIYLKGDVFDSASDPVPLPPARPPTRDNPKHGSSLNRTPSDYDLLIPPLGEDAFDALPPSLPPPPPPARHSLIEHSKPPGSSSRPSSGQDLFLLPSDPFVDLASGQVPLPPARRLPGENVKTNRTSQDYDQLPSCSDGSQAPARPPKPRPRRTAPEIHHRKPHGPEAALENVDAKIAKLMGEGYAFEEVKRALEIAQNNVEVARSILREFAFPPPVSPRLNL

Take `CC1c2nc(N3CCC(O[C@H]4CC[C@H](CN5C[C@@H]6C[C@H]5CN6Cc5cc6c(c(C(F)(F)F)c5)CN(c5cccc([C@]7(Cc8nncn8C)C[C@H](C#N)C7)c5)C6=O)CC4)CC3)ccc2C(=O)N1C1CCC(=O)NC1=O` (stereo partly drawn) [Example 214, (1r,3r)-3-[(4-methyl-4H-1,2,4-triazol-3-yl)methyl]-3-[3-(1-oxo-6-{[(1S,4S)-5-{[(1r,4r)-4-({1-[6-(2,6-dioxopiperidin-3-yl)-7-methyl-5-oxo-5H,6H,7H-pyrrolo[3,4-b]pyridin-2-yl]piperidin-4-yl}oxy)cyclohexyl]methyl}-2,5-diazabicyclo[2.2.1]heptan-2-yl]methyl}-4-(trifluoromethyl)-2,3-dihydro-1H-isoindol-2-yl)phenyl]cyclobutane-1-carbonitrile]: the DC50 in experiment [1] is 5 to 50 nM; in experiment [2], less than 5 nM. Besides, the maximal degradation (Dmax) in experiment [1] and in experiment [2] (maximum degradation observed) was 35 to 70% each time.

Consider `Cn1cnnc1C[C@]1(c2cccc(N3Cc4c(cc(CN5CCN(C[C@H]6CC[C@H](OC7CCN(c8ccc9c(c8)n(C)c(=O)n9C8CCC(=O)NC8=O)CC7)CC6)CC5)cc4C(F)(F)F)C3=O)c2)C[C@H](C#N)C1` (stereo partly shown) [Example 215, (1r,3r)-3-[(4-methyl-4H-1,2,4-triazol-3-yl)methyl]-3-(3-{1-oxo-6-[(4-{[(1r,4r)-4-({1-[1-(2,6-dioxopiperidin-3-yl)-3-methyl-2-oxo-2,3-dihydro-1H-1,3-benzodiazol-5-yl]piperidin-4-yl}oxy)cyclohexyl]methyl}piperazin-1-yl)methyl]-4-(trifluoromethyl)-2,3-dihydro-1H-isoindol-2-yl}phenyl)cyclobutane-1-carbonitrile], for which the DC50 in experiment [1] and in experiment [2] was less than 5 nM each time. Further, the results for the Dmax in experiment [1] and in experiment [2] (maximum degradation observed) were greater than 70% and 35 to 70%, respectively.

Take `CC1c2nc(N3CCC(O[C@H]4CC[C@H](CN5C[C@H]6C[C@@H]5CN6Cc5cc6c(c(C(F)(F)F)c5)CN(c5cccc([C@]7(Cc8nncn8C)C[C@@H](C#N)C7)c5)C6=O)CC4)CC3)ccc2C(=O)N1C1CCC(=O)NC1=O` (stereo partly drawn) [Example 217, (1r,3r)-3-[(4-methyl-4H-1,2,4-triazol-3-yl)methyl]-3-[3-(1-oxo-6-{[(1R,4R)-5-{[(1r,4r)-4-({1-[6-(2,6-dioxopiperidin-3-yl)-7-methyl-5-oxo-5H,6H,7H-pyrrolo[3,4-b]pyridin-2-yl]piperidin-4-yl}oxy)cyclohexyl]methyl}-2,5-diazabicyclo[2.2.1]heptan-2-yl]methyl}-4-(trifluoromethyl)-2,3-dihydro-1H-isoindol-2-yl)phenyl]cyclobutane-1-carbonitrile]: the DC50 in experiment [1] was 5 to 50 nM; in experiment [2], less than 5 nM. Besides, the Dmax in experiment [1] and in experiment [2] (maximum degradation observed) was 35 to 70% in each case.

For the compound `Cn1cnnc1C[C@]1(c2cccc(N3Cc4c(cc(CN5CCN(C[C@H]6CC[C@H](OC7CCN(c8ccc9c(c8)CC(=O)N9C8CCC(=O)NC8=O)CC7)CC6)CC5)cc4C(F)(F)F)C3=O)c2)C[C@H](C#N)C1` (stereo partly shown) [Example 219, (1r,3r)-3-[(4-methyl-4H-1,2,4-triazol-3-yl)methyl]-3-(3-{1-oxo-6-[(4-{[(1r,4r)-4-({1-[1-(2,6-dioxopiperidin-3-yl)-2-oxo-2,3-dihydro-1H-indol-5-yl]piperidin-4-yl}oxy)cyclohexyl]methyl}piperazin-1-yl)methyl]-4-(trifluoromethyl)-2,3-dihydro-1H-isoindol-2-yl}phenyl)cyclobutane-1-carbonitrile], the DC50 in experiment [1] and in experiment [2] was less than 5 nM each time. In addition, the greatest degradation seen (Dmax) in experiment [1] and in experiment [2] (maximum degradation observed) was greater than 70% each time.

In the case of `Cc1cc(N2CCC(O[C@H]3CC[C@H](CN4CCN(Cc5cc6c(c(C(F)(F)F)c5)CN(c5cccc([C@]7(Cc8nncn8C)C[C@H](C#N)C7)c5)C6=O)[C@@H](C)C4)CC3)CC2)c(F)c2c1C(=O)N(C1CCC(=O)NC1=O)C2` (stereo partly drawn) [Example 220, (1r,3r)-3-[3-(6-{[(2S)-2-methyl-4-{[(1r,4r)-4-({1-[2-(2,6-dioxopiperidin-3-yl)-4-fluoro-7-methyl-1-oxo-2,3-dihydro-1H-isoindol-5-yl]piperidin-4-yl}oxy)cyclohexyl]methyl}piperazin-1-yl]methyl}-1-oxo-4-(trifluoromethyl)-2,3-dihydro-1H-isoindol-2-yl)phenyl]-3-[(4-methyl-4H-1,2,4-triazol-3-yl)methyl]cyclobutane-1-carbonitrile], the DC50 in experiment [1] is 5 to 50 nM; in experiment [2], less than 5 nM. The Dmax in experiment [1] and in experiment [2] (maximum degradation observed) was greater than 70% each time.

With `Cn1cnnc1CC1(c2cccc(-n3cc4c(C(F)(F)F)cc(CN5CCC[C@H](CN6CCN(C[C@H]7CC[C@@H](OC8CCN(c9ccc%10c(c9F)CN(C9CCC(=O)NC9=O)C%10=O)CC8)CC7)CC6)C5)cc4n3)c2)COC1` (stereo partly drawn) [Example 221, 3-[4-fluoro-1-oxo-5-(4-{[(1r,4r)-4-[(4-{[(3S)-1-{[2-(3-{3-[(4-methyl-4H-1,2,4-triazol-3-yl)methyl]oxetan-3-yl}phenyl)-4-(trifluoromethyl)-2H-indazol-6-yl]methyl}piperidin-3-yl]methyl}piperazin-1-yl)methyl]cyclohexyl]oxy}piperidin-1-yl)-2,3-dihydro-1H-isoindol-2-yl]piperidine-2,6-dione], the DC50 in experiment [1] and in experiment [2] was less than 5 nM in each case. Further, the Dmax in experiment [1] and in experiment [2] (maximum degradation observed) was greater than 70% each time.

For the compound `CC1c2nc(N3CCC(O[C@H]4CC[C@@H](CN5C[C@@H]6C[C@H]5CN6Cc5cc6c(c(C(F)(F)F)c5)CN(c5cccc(C7(Cc8nncn8C)CCC7)c5)C6=O)CC4)CC3)ccc2C(=O)N1C1CCC(=O)NC1=O` (stereo partly drawn) [Example 223, 3-[7-methyl-5-oxo-2-(4-{[(1r,4r)-4-{[(1S,4S)-5-{[2-(3-{1-[(4-methyl-4H-1,2,4-triazol-3-yl)methyl]cyclobutyl}phenyl)-3-oxo-7-(trifluoromethyl)-2,3-dihydro-1H-isoindol-5-yl]methyl}-2,5-diazabicyclo[2.2.1]heptan-2-yl]methyl}cyclohexyl]oxy}piperidin-1-yl)-5H,6H,7H-pyrrolo[3,4-b]pyridin-6-yl]piperidine-2,6-dione], the DC50 in experiment [1] is 5 to 50 nM; in experiment [2], less than 5 nM. The greatest degradation seen (Dmax) in experiment [1] and in experiment [2] (maximum degradation observed) was 35 to 70% in each case.

Regarding `C[C@H]1CN(Cc2cc3c(c(C(F)(F)F)c2)CN(c2cccc(C4(Cc5nncn5C)COC4)c2)C3=O)CCN1CC1CCC(OC2CCN(c3ccc4c(c3F)CN(C3CCC(=O)NC3=O)C4=O)CC2)CC1` (stereo partly drawn) [Example 237, 3-[4-fluoro-1-oxo-5-(4-{[(1rs,4rs)-4-{[(2S)-2-methyl-4-{[2-(3-{3-[(4-methyl-4H-1,2,4-triazol-3-yl)methyl]oxetan-3-yl}phenyl)-3-oxo-7-(trifluoromethyl)-2,3-dihydro-1H-isoindol-5-yl]methyl}piperazin-1-yl]methyl}cyclohexyl]oxy}piperidin-1-yl)-2,3-dihydro-1H-isoindol-2-yl]piperidine-2,6-dione], the DC50 in experiment [1] and in experiment [2] was less than 5 nM throughout. Also, the Dmax in experiment [1] and in experiment [2] (maximum degradation observed) was greater than 70% throughout.

In the case of `CC1c2nc(N3CCC(OC4CCC(CN5CCN(Cc6cc7c(c(C(F)(F)F)c6)CN(c6cccc(C8(Cc9nncn9C)COC8)c6)C7=O)C[C@H]5C)CC4)CC3)ccc2C(=O)N1C1CCC(=O)NC1=O` (stereo partly drawn) [Example 238, 3-[7-methyl-5-oxo-2-(4-{[(1rs,4rs)-4-{[(2R)-2-methyl-4-{[2-(3-{3-[(4-methyl-4H-1,2,4-triazol-3-yl)methyl]oxetan-3-yl}phenyl)-3-oxo-7-(trifluoromethyl)-2,3-dihydro-1H-isoindol-5-yl]methyl}piperazin-1-yl]methyl}cyclohexyl]oxy}piperidin-1-yl)-5H,6H,7H-pyrrolo[3,4-b]pyridin-6-yl]piperidine-2,6-dione], the values for the DC50 in experiment [1] and in experiment [2] were 5 to 50 nM and less than 5 nM, respectively. Further, the Dmax in experiment [1] and in experiment [2] (maximum degradation observed) was 35 to 70% throughout.

With `CC1c2c(cc(CN3CCC[C@H](CN4CCN(C[C@H]5CC[C@H](OC6CCN(c7ccc8c(c7F)CN(C7CCC(=O)NC7=O)C8=O)CC6)CC5)CC4(C)C)C3)cc2C(F)(F)F)C(=O)N1c1cccc(C2(Cc3nncn3C)COC2)c1` (stereo partly drawn) [Example 276, 3-(5-(4-(((1S,4r)-4-((3,3-dimethyl-4-(((3S)-1-((1-methyl-2-(3-(3-((4-methyl-4H-1,2,4-triazol-3-yl)methyl)oxetan-3-yl)phenyl)-3-oxo-7-(trifluoromethyl)isoindolin-5-yl)methyl)piperidin-3-yl)methyl)piperazin-1-yl)methyl)cyclohexyl)oxy)piperidin-1-yl)-4-fluoro-1-oxoisoindolin-2-yl)piperidine-2,6-dione], in experiment [1], the DC50 was 5 to 50 nM and the Dmax is less than 35%. The DC50 in experiment [2] is 5 to 50 nM. Further, the “Cbl-b Degredation Method B Dmax (%)” value in experiment [2] (maximum degradation observed) was “C (C ≤ 35)”.

Values taken from patent US20260184710A1, “CASITAS B-LINEAGE LYMPHOMA PROTOONCOGENE B (CBL-B) DEGRADING COMPOUNDS AND ASSOCIATED METHODS OF USE” (Arvinas Operations, Inc., priority 2022, published 2026).
